These results are taken from patent US20250296939A1, “BENZOTHIOPHENE COMPOUND” (Kyoto Pharmaceutical Industries, Ltd., priority 2022, published 2025).

For the test, the target named is GST-fused human Keap1 (amino acid residues: 325-642) protein (Homo sapiens (Human), UniProt Q14145). Briefly: FP assay (in vitro): inhibition of binding between Nrf2 and Keap1 by fluorescence polarization. Particulars: 20 nM GST-fused human Keap1, 10 nM FITC-labeled Nrf2 peptide, 2 hr at room temperature. The procedure:
Experimental Example 1: FP Assay (In Vitro)
The inhibitory activity of test compounds on the binding between Nrf2 and Keap1 was determined by fluorescence polarization. A solution of 50 mM Tris-HCl pH.8.0 (NACALAI, REF: 06938-15), and 5 mM DTT (SIGMA-ALDRICH, REF: 646563-10X.5 mL) was used as a buffer solution. 8 μL of a buffer solution containing 40 nM GST-fused human Keap1 (amino acid residues: 325-642) protein (Protein tech, REF: Ag0779) was taken in a black 384-well plate (final concentration 20 nM), and 4 μL of the test compound solution prepared to each concentration in buffer solution was added thereto. A well containing a portion of the buffer solution without Keap1 was placed as a negative control. A well with no compound was used as a positive control. 40 nM of FITC-labeled Nrf2 peptide (FITC-X-LQLDEETGEFLPIQ (X=ε-Acp), Peptide Institute Inc.) was added thereto (10 nM final concentration). The wells were incubated at room temperature for 2 hr, and then fluorescence polarization was measured with a plate reader SPECTRAMAX Paradigm (Molecular devices) at excitation wavelength of 485 nm and fluorescence wavelength of 535 nm. The fluorescence polarization of the negative control was set to 100% inhibition and that of the positive control to 0% inhibition, and the inhibitory rate upon addition of the test compound was calculated using the following formula.

Sequence of GST-fused human Keap1 (amino acid residues: 325-642) protein (Q14145 325-624 limits assumed): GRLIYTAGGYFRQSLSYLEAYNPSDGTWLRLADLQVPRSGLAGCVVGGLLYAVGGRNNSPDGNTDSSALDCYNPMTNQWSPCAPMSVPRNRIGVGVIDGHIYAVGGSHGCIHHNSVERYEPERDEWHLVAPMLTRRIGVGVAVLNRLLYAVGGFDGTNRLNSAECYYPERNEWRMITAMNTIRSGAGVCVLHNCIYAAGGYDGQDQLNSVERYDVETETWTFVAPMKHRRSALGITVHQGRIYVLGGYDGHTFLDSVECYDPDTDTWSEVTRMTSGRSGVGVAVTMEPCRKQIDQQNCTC

On to `Cc1c(C(CC(=O)O)c2cc(CN3Cc4nc(O)ccc4OC4(CC4)[C@H]3C)c3sccc3c2)ccc2c1nnn2C` (single isomer, unassigned) [Example 59, (3S*)-3-(1,4-Dimethyl-1H-benzotriazol-5-yl)-3-(7-{[(3′R)-7′-hydroxy-3′-methyl-3′H-spiro[cyclopropane-1,2′-pyrido[2,3-f][1,4]oxazepin]-4′ (5′H)-yl]methyl}-1-benzothiophen-5-yl)propanoic acid], for which the IC50 lay within 0.3 to 3 µM.

The molecule `Cc1c(C(CC(=O)O)c2cc(CN3Cc4nc(O)ccc4OC4(CC4)[C@@H]3C)c3sccc3c2)ccc2c1nnn2C` (single isomer, unassigned) [Example 61, (3S*)-3-(1,4-Dimethyl-1H-benzotriazol-5-yl)-3-(7-{[(3′S)-7′-hydroxy-3′-methyl-3′H-spiro[cyclopropane-1,2′-pyrido[2,3-f][1,4]oxazepin]-4′ (5′H)-yl]methyl}-1-benzothiophen-5-yl)propanoic acid] registered an IC50 of 0.03 to 0.3 µM.

The molecule `Cc1c([C@H](CC(=O)O)c2cc(CN3Cc4nc(O)ccc4CC(C4CC4)C3)c3sccc3c2)cnc2c1nnn2C` (single isomer, unassigned) [Example 91, (3R)-3-(7-{[(6S*)-6-Cyclopropyl-2-hydroxy-5,6,7,9-tetrahydro-8H-pyrido[2,3-c]azepin-8-yl]methyl}-1-benzothiophen-5-yl)-3-(3,7-dimethyl-3H-[1,2,3]triazolo[4,5-b]pyridin-6-yl)propanoic acid] came in with an IC50 of 0.03 to 0.3 µM.

Regarding `Cc1c([C@H](CC(=O)O)c2cc(CN3Cc4nc(O)ccc4CC(C4CC4)C3)c3sccc3c2)ccc2c1nnn2C` (single isomer, unassigned) [Example 89, (3R)-3-(7-{[(6R*)-6-Cyclopropyl-2-hydroxy-5,6,7,9-tetrahydro-8H-pyrido[2,3-c]azepin-8-yl]methyl}-1-benzothiophen-5-yl)-3-(1,4-dimethyl-1H-benzotriazol-5-yl)propanoic acid], the IC50 fell in the range of 0.03 to 0.3 µM.

As to `CC[C@@H]1CN(Cc2cc([C@@H](CC(=O)O)c3ccc4c(nnn4CC(F)(F)F)c3C)cc3ccsc23)Cc2nc(O)ccc2O1` (single isomer, unassigned) [Example 28], the IC50 lay within 0.01 to 0.03 µM.

The molecule `CC[C@@H]1CN(Cc2cc(C(CC(=O)O)c3ccc4c(nnn4C)c3C)cc3ccsc23)Cc2ncc(O)cc2O1` (single isomer, unassigned) [Example 66, (3S*)-3-(1,4-Dimethyl-1H-benzotriazol-5-yl)-3-(7-{[(2R)-2-ethyl-8-hydroxy-2,3-dihydropyrido[2,3-f][1,4]oxazepin-4(5H)-yl]methyl}-1-benzothiophen-5-yl)propanoic acid] registered an IC50 of 0.03 to 0.3 µM.

Take `CC[C@@H]1CN(Cc2cc([C@H](c3ccc4c(nnn4C)c3C)C(C)(C)C(=O)O)cc3ccsc23)Cc2nc(O)ccc2O1` [Example 12, (3R)-3-(1,4-Dimethyl-1H-benzotriazol-5-yl)-3-(7-{[(2R)-2-ethyl-7-hydroxy-2,3-dihydropyrido[2,3-f][1,4]oxazepin-4(5H)-yl]methyl}-1-benzothiophen-5-yl)-2,2-dimethylpropanoic acid]: the IC50 is 0.3 to 3 µM.
